This is an account of results in the Kinase Knowledgebase extract (Sharma et al. 2016).

Values joined by “and” are separate entries in the source; they are usually repeats but may differ in a detail not shown here. Equal values may be shown once.

In experiment [1] the test system is MAPK14 (rat). The experiment in a line: Animal Model. The following applies: mesencephalon tissue.
In experiment [2] the test system is MAPK14 (rat). Kind of experiment: Cell-Based Assay. The conditions noted are these: mesencephalic neurons.
Experiment [3] has as its system MAPK14 (rat). The experiment in a line: Cell-Based Assay. The following applies: mesencephalic neurons. This is another data set of the same source.

Regarding `O=[N+]([O-])c1ccc(-c2nc(-c3ccc(F)cc3)c(-c3ccncc3)[nH]2)cc1`, the cell count in experiment [1] came out at 3020; in experiment [2], 283 cm-2; in experiment [3] it was 421 cm-2. The response in experiment [2] was 400 cm2 and 570 cm2; in experiment [3], 454 cm2.
Take `Oc1ccc(-c2nc(-c3ccc(F)cc3)c(-c3ccncc3)[nH]2)cc1`: in experiment [2], the cell count was 283 cm-2; the response was 600 cm2 and 473 cm2.
